Reference: US11268069B2, “Reprogramming methods and cell culture platforms” (Fate Therapeutics, Inc., priority 2014, dated 2022)

Test system: hiPSC clone FTi111
Assay: Thaw of hiPSC clone FTi111 into various culture environments
Assay type: cell-based, human
Conditions: conventional culture with feeder cells

**Q.** With `O=C(NCc1ccccc1)c1csc(Nc2ccncn2)n1` [Thiazovivin] as the molecule, how does the “recovery of hiPSC colonies post thaw” value read?
**A.** Its value is “only recovered in the presence of Thiazovivin”.
